Experimental data from ChEMBL document CHEMBL4007467, “Effects of 6-paradol, an unsaturated ketone from gingers, on cytochrome P450-mediated drug metabolism” (Bioorg Med Chem Lett, 2017).

Experiments:
Format in all cases: ADME
CYP2C8 = biological target: T1, CYP2C8 (Homo sapiens, UniProt P10632); experiment: Inhibition of CYP2C8 in human liver microsomes assessed as enzyme-mediated metabolite formation at 0.3 uM using paclitaxel as substrate incubated for 5 mins followed by NADPH addition measured after 30 mins by LC-MS/MS analysis relative to control; design: scale not given: the % may be the effect or the level left; details: probe paclitaxel, read-out: Activity
T1 sequence (P10632 whole entry): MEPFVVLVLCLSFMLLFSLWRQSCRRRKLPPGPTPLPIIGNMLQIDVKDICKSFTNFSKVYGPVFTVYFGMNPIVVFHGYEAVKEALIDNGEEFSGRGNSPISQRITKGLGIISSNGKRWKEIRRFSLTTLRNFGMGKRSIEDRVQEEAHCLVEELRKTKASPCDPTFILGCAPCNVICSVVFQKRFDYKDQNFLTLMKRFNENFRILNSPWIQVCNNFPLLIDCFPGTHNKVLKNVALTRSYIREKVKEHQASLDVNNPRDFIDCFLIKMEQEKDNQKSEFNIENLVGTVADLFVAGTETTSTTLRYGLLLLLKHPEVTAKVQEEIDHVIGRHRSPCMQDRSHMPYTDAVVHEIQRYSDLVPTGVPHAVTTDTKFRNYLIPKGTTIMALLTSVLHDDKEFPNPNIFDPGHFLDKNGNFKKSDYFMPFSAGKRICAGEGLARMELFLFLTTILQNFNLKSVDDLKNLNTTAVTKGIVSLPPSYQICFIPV

CYP2A6 [1] = biological target: T2, CYP2A6 (Homo sapiens, UniProt P11509); experiment: Inhibition of CYP2A6 in human liver microsomes assessed as enzyme-mediated metabolite formation at 0.1 uM using coumarin as substrate preincubated for 20 mins followed by substrate addition measured after 30 mins in presence of NADPH by LC-MS/MS analysis relative to control; design: scale not given: the % may be the effect or the level left; details: probe coumarin, read-out: Activity
T2 sequence (P11509 whole entry): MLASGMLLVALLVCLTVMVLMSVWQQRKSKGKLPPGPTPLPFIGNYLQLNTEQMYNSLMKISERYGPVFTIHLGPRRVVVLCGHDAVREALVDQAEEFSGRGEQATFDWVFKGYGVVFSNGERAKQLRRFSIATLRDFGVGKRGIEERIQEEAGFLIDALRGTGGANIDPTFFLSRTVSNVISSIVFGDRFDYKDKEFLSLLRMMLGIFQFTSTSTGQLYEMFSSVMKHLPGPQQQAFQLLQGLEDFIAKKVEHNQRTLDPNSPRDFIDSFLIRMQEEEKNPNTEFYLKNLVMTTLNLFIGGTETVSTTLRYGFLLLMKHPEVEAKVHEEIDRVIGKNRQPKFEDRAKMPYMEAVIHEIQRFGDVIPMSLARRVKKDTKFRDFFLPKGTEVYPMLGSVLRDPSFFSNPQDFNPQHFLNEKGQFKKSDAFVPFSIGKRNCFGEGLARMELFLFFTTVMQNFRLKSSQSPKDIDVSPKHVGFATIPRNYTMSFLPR

CYP3A4 [2] = biological target: T3, CYP3A4 (Homo sapiens, UniProt P08684); experiment: Inhibition of CYP3A4 in human liver microsomes assessed as enzyme-mediated metabolite formation at 3 uM using testosterone as substrate preincubated for 20 mins followed by substrate addition measured after 30 mins in presence of NADPH by LC-MS/MS analysis relative to control; design: scale not given: the % may be the effect or the level left; details: probe testosterone, read-out: Activity
CYP1A2 = biological target: T4, CYP1A2 (Homo sapiens, UniProt P05177); experiment: Inhibition of CYP1A2 in human liver microsomes assessed as enzyme-mediated metabolite formation at 3 uM using phenacetin as substrate preincubated for 20 mins followed by substrate addition measured after 30 mins in presence of NADPH by LC-MS/MS analysis relative to control; design: scale not given: the % may be the effect or the level left; details: probe phenacetin, read-out: Activity
T4 sequence (P05177 whole entry): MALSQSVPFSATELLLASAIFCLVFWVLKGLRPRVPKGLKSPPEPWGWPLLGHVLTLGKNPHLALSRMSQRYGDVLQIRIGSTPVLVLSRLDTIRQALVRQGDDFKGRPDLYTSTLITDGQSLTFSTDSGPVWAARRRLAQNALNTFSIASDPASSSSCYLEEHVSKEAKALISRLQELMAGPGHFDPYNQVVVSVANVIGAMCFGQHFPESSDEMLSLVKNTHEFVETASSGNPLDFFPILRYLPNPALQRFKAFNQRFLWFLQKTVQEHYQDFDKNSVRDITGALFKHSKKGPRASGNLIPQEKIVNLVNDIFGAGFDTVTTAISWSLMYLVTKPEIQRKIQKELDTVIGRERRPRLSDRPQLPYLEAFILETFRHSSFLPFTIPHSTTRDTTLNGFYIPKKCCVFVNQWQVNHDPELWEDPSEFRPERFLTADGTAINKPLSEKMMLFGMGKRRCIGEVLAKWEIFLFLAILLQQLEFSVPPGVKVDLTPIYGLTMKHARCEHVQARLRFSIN

CYP2A6 [3] = biological target: T2, CYP2A6; experiment: Inhibition of CYP2A6 in human liver microsomes assessed as enzyme-mediated metabolite formation at 0.3 uM using coumarin as substrate preincubated for 20 mins followed by substrate addition measured after 30 mins in presence of NADPH by LC-MS/MS analysis relative to control; design: scale not given: the % may be the effect or the level left; details: probe coumarin, read-out: Activity
CYP2C19 = CYP2C19 (Homo sapiens, UniProt P33261); experiment: Inhibition of CYP2C19 in human liver microsomes assessed as enzyme-mediated metabolite formation at 30 uM using (S)-mephenytoin as substrate preincubated for 20 mins followed by substrate addition measured after 30 mins in presence of NADPH by LC-MS/MS analysis relative to control; design: scale not given: the % may be the effect or the level left; details: probe (S)-mephenytoin, read-out: Activity
CYP3A4 [4] = biological target: T3, CYP3A4; experiment: Inhibition of CYP3A4 in human liver microsomes assessed as enzyme-mediated metabolite formation at 1 uM using testosterone as substrate incubated for 5 mins followed by NADPH addition measured after 30 mins by LC-MS/MS analysis relative to control; design: scale not given: the % may be the effect or the level left; details: probe testosterone, read-out: Activity
Cytochrome P450 2B6 = biological target: T5, Cytochrome P450 2B6 (Homo sapiens, UniProt P20813); experiment: Inhibition of CYP2B6 in human liver microsomes assessed as enzyme-mediated metabolite formation using bupropion as substrate incubated for 5 mins followed by NADPH addition measured after 30 mins by LC-MS/MS analysis
T5 sequence (P20813 whole entry): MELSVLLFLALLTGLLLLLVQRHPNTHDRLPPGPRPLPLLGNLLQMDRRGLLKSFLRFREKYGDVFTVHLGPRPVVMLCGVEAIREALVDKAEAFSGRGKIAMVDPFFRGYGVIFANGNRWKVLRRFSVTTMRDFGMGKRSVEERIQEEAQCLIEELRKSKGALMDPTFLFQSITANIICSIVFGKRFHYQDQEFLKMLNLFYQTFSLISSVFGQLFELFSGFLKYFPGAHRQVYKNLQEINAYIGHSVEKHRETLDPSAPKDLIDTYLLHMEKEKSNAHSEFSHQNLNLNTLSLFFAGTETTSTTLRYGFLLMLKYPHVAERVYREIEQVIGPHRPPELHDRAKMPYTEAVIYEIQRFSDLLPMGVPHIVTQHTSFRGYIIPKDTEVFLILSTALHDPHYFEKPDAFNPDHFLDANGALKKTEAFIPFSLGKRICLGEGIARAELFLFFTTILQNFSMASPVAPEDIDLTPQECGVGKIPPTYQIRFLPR

T3 sequence (P08684 whole entry): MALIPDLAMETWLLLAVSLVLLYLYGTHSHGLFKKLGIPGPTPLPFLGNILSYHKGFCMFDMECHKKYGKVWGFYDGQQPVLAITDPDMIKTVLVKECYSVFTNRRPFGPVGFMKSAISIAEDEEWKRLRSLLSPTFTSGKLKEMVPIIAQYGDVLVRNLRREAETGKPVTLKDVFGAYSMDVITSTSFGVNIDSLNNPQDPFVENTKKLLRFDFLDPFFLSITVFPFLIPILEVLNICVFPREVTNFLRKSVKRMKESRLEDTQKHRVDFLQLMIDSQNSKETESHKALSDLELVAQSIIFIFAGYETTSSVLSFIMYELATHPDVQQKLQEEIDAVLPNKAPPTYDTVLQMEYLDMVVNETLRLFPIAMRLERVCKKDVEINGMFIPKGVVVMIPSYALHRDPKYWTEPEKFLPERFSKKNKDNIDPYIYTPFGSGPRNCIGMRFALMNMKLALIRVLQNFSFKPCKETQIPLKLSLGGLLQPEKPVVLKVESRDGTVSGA
Sequence of CYP2C19 (P33261 whole entry): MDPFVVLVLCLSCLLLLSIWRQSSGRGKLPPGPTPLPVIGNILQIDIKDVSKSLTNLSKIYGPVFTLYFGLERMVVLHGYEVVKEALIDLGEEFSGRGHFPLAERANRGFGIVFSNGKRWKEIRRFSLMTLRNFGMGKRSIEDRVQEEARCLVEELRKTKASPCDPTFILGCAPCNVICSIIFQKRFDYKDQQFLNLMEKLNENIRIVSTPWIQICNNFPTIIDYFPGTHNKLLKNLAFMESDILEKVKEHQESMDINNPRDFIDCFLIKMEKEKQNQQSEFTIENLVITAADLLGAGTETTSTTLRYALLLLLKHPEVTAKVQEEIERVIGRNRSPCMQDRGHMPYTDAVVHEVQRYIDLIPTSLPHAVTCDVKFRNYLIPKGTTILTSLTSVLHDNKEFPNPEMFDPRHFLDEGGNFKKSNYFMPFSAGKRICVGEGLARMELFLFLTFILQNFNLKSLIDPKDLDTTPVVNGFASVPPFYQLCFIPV

activity at 0.5 h, 0.3 µM (CYP2C8): 82% | activity at 0.5 h, 0.1 µM (CYP2A6 [1]): 96.5% | activity at 0.5 h, 3 µM (CYP3A4 [2]): 95.8% | activity at 0.5 h, 3 µM (CYP1A2): 76.5% | activity at 0.5 h, 0.3 µM (CYP2A6 [3]): 103% | activity at 0.5 h, 30 µM (CYP2C19): 36.8% | activity at 0.5 h, 1 µM (CYP3A4 [4]): 65.6% | IC50 (Cytochrome P450 2B6): 15.4 µM
SMILES: CCCCCCCC(=O)CCc1ccc(O)c(OC)c1
